Values joined by “and” are separate entries in the source; they are usually repeats but may differ in a detail not shown here. Equal entries are not always repeated. Where two headings read alike, the source gives them in different places.
Assays:
DENV2 RdRp = target: T1, DENV2 RdRp (Dengue virus type 2, UniProt P14340); experiment: DENV biochemical enzyme assay; settings: mean ± SD of two individual experiments
T1 construct: 100 nM of DENV2 full-length NS5 enzyme
Protocol: The inhibitory activities of compounds SW-b and SW-d against DENV-2 RdRp were assessed using in vitro enzyme inhibition assays. Compounds 3′-dATP, BCX4430, and NITD008 were used as controls. […] This confirmed the reliability of the DENV2 RdRp inhibitory activity assay.
Additionally, it contained 20 μM ATP, 20 μM GTP, 20 μM UTP, 5 μM ATTO-CTP, and 100 nM of DENV2 full-length NS5 enzyme. These were all suspended in a solution consisting of 50 mM Tris/HCl at pH 7.5, 10 mM KCl, 1 mM MgCl2, 0.3 mM MnCl2, 0.001% Triton-X-100, and 10 μM cysteine. Five compounds, with concentrations ranging from 0 to 20 or 100 μM, were serially diluted 2-fold into 384-well white opaque plates (Corning Costar, New York, NY, USA), resulting in a final volume of 5 μL. Subsequently, 5 μL of the enzyme in a 1× assay buffer was added to their respective wells. The plate was incubated at room temperature for 15 min, after which 5 μL of a mixture containing RNA and NTPs was introduced to initiate the reactions. After a reaction time of 120 min, the process was terminated by adding 10 μL of a 2.5× STOP buffer, comprising 200 mM NaCl, 25 mM MgCl2, and 1.5 M DEA adjusted to pH 10 using […]. Additionally, 25 nM of calf intestinal alkaline phosphatase (NEB) was introduced. The mixture was allowed to incubate at room temperature for an additional 60 min. To quantify the results, a Tecan Saffire II microplate reader was employed, with excitation max and emission max wavelengths set at 422 nm and 566 nm, respectively. All data points were analyzed in duplicate wells. Finally, the IC50 values were determined using a nonlinear regression curve fit for a sigmoidal dose–response (variable slope) in GraphPad Prism version 3.02 (GraphPad Prism, Inc., San Diego, CA).

DENV2 NGC strain = experiment: Cytopathic effect (CPE) inhibition assay; type: cell-based, Dengue virus (DENV2); settings: for SI (Selectivity Index): ratio of CC50 to IC50; for IC50: BHK-21 cells, DENV2 NGC strain, mean ± SD of two individual experiments, read-out: DENV-NGC-IC50
Protocol: The antiviral activities of the nine synthesized compounds against DENV were assessed using the DENV2 NGC strain and BHK-21 cells via CPE inhibition assays. BCX4430, NITD008, and 27 were used as positive controls (Figure S2). […] The activity of compound SW-d was higher than that of BCX4430 and lower than that of NITD008; however, its SI was higher than those of BCX4430 and NITD008.
In cell-based antiviral assays, the DENV2 NGC strain (Sino Biological Inc., Beijing, China) and BHK-21 cells (Baby hamster kidney cell line; ATCC CCL10) were used. The viral stock was prepared by inoculating C6/36 cells (Aedes albopictus clone C6/36; ATCC CRL166) as described previously. […] The supernatant was cleared by centrifugation at 2000 g for 5 min to remove cell debris and adjusted to 20% FBS. Aliquots of the virus were stored at […]. The 50% tissue culture infective dose (TCID50) was determined using the Promega Viral ToxGlo assay (Fisher Scientific, Ottawa, ON, Canada) in BHK-21 cells, according to the manufacturer’s instructions. Cell-based assays for the evaluation of antiviral activity against DENV were performed as described previously with modifications, using the Viral ToxGlo assay (Fisher Scientific, Ottawa, ON, Canada) according to the manufacturer’s instructions. Briefly, BHK-21 cells were plated in 96-well plates at 2500 cells/well in Dulbecco’s modified Eagle’s medium (DMEM) containing 10% FBS and 1% penicillin-streptomycin. Cells were incubated at 37 °C overnight and infected with 100 TCID50 of DENV for 90 min. The medium was replaced with DMEM containing 2.5% FBS and varying concentrations of the test compounds. Cell cultures were maintained at 37 °C in a 5% CO2 incubator for 3 days. The Viral Tox reagent was freshly prepared, and 100 μL of the reagent was added to each well. The plates were incubated for at least 10 min and then quantified using a 1450 MicroBeta TriLux microplate scintillation and luminescence counter (PerkinElmer, Waltham, MA, USA). For the off-target cytotoxicity assay, the test compounds were processed as described above, except without DENV infection of the cells. The luminescence readings were plotted against the log transformation of the concentration of the compound. Data were analyzed by nonlinear regression using GraphPad Prism 5.0 software (GraphPad Software, San Diego, CA, USA).

Cytotoxicity assay = type: cell-based; settings: dog
DENV RdRp = tested on: DENV RdRp; parameters: method as in PMID 26984786, PMID 27500641; settings: against all clinically relevant dengue virus serotypes; cited from earlier work
MDCK cells = experiment: Cytotoxicity assay; type: cell-based; settings: cytotoxicity, MDCK cells
[1] = Dengue virus, DENV2, BHK-21, CPE inhibition

Compound `Nc1ncnc2c1ncn2[C@@H]1O[C@H](COP(=O)(O)OP(=O)(O)OP(=O)(O)O)C[C@H]1O` [3′-dATP, reference compound] has an IC50 (DENV2 RdRp) of 30.1 ± 8.26 µM.
With `Nc1ncnc2c([C@@H]3N[C@H](CO)[C@@H](O)[C@H]3O)c[nH]c12` [BCX4430, reference compound] the “SI (Selectivity Index)” value (DENV2 NGC strain) was 2.40 and the CC50 at 3 days (Cytotoxicity assay) was 100 µM.
In the case of `COc1cc(C)c(C(=O)NS(=O)(=O)c2cccc3cccnc23)cc1-c1ccc(C#CCO)s1` [Compound 27, reference compound], the IC50 (DENV RdRp) is listed as 0.013 to 0.074 µM and the IC50 (DENV2 NGC strain; [1]) is listed as 19.7 ± 1.12 µM.
In the case of `COc1cccc(S(=O)(=O)NC(=O)c2cc(-c3ccc(C#CCO)s3)c(OC)cc2OC)c1` [Compound 29], the IC50 (DENV RdRp) is given as 0.048 to 0.172 µM.
For `C#C[C@@]1(O)[C@H](O)[C@@H](CO)O[C@H]1n1ccc2c(N)ncnc21` [NITD008, reference compound], the IC50 (DENV2 NGC strain; CPE inhibition) was 41.6 µM and 15.5 µM and the CC50 (MDCK cells) was 20 µM.
For `COc1cccc(C(=O)NS(=O)(=O)c2cc(-c3ccc(C#CCO)s3)c(OC)cc2C)c1` [SW-a], the IC50 (DENV2 NGC strain; [1]) was 57.6 ± 2.37 µM.
With `COc1cc(C)c(S(=O)(=O)NC(=O)C(C)Oc2ccc3c4c(c(=O)oc3c2)CCCC4)cc1-c1ccc(C#CCO)s1` (stereo not drawn) [SW-b] the IC50 (DENV2 RdRp) was 11.5 ± 1.3 µM, the IC50 (DENV2 NGC strain; [1]) was 3.58 ± 0.29 µM and the “SI (Selectivity Index)” value (DENV2 NGC strain) was 6.89. It also gave a CC50 at 3 days (Cytotoxicity assay) of 24.7 µM.
Work on `COc1cc(C)c(S(=O)(=O)NC(=O)c2ccc(-n3c(C)ccc3C)cc2)cc1-c1ccc(C#CCO)s1` [SW-c] yielded an IC50 (DENV2 NGC strain; [1]) of 41.5 ± 1.37 µM and a CC50 at 3 days (Cytotoxicity assay) greater than 200 µM.
In the case of `COc1cc(C)c(S(=O)(=O)NC(=O)c2ccc(C)c(Nc3nc(C)nc4c3CCC4)c2)cc1-c1ccc(C#CCO)s1` [SW-d], the IC50 (DENV2 RdRp) is reported as 13.5 ± 0.32 µM, the IC50 (DENV2 NGC strain; [1]) is reported as 23.9 ± 1 µM and the “SI (Selectivity Index)” value (DENV2 NGC strain) is reported as 5.58. For the same compound, the CC50 at 3 days (Cytotoxicity assay) was 134 µM.
`COc1cc(C)c(S(=O)(=O)NC(=O)C2CC(=O)N(c3ccc(Cl)c(Cl)c3)C2)cc1-c1ccc(C#CCO)s1` (stereo not drawn) [SW-e] gave an IC50 (DENV2 NGC strain; [1]) greater than 200 µM and a CC50 at 3 days (Cytotoxicity assay) of 69.9 µM.
In the case of `COc1cc(C)c(S(=O)(=O)NC(=O)c2ccc3c(c2)C(=O)N(c2cccc(C)c2)C3=O)cc1-c1ccc(C#CCO)s1` [SW-f], the IC50 (DENV2 NGC strain; [1]) is reported as 53.8 ± 4.53 µM, the “SI (Selectivity Index)” value (DENV2 NGC strain) is reported as greater than 3.72 and the CC50 at 3 days (Cytotoxicity assay) is reported as greater than 200 µM.
`COc1cc(C)c(S(=O)(=O)NC(=O)c2ccc(C)s2)cc1-c1ccc(C#CCO)s1` [SW-g] gave an IC50 (DENV2 NGC strain; [1]) greater than 200 µM.
For `COc1cc(C)c(S(=O)(=O)NC(=O)c2ccncn2)cc1-c1ccc(C#CCO)s1` [SW-h], the IC50 (DENV2 NGC strain; [1]) was greater than 200 µM.
`COc1cc(C)c(S(=O)(=O)NC(=O)Cn2nc(C)cc2C)cc1-c1ccc(C#CCO)s1` [SW-i] showed an IC50 (DENV2 NGC strain; [1]) greater than 200 µM.

— article PMC10674617, “Design, Synthesis, Evaluation and Molecular Dynamics Simulation of Dengue Virus NS5-RdRp Inhibitors” (Pharmaceuticals, 2023)
